target: T1, P2X7 receptor (Homo sapiens, UniProt Q99572); experiment: High throughput P2X7 calcium mobilization assay (Example 4A); assay type: cell-based; settings: SH-SY5Y cells; 50% decrease in fluorescence response of cells exposed to 80 μM BzATP; Table I
T1 construct: host or cells: SH-SY5Y
T1 sequence (Q99572 1-595): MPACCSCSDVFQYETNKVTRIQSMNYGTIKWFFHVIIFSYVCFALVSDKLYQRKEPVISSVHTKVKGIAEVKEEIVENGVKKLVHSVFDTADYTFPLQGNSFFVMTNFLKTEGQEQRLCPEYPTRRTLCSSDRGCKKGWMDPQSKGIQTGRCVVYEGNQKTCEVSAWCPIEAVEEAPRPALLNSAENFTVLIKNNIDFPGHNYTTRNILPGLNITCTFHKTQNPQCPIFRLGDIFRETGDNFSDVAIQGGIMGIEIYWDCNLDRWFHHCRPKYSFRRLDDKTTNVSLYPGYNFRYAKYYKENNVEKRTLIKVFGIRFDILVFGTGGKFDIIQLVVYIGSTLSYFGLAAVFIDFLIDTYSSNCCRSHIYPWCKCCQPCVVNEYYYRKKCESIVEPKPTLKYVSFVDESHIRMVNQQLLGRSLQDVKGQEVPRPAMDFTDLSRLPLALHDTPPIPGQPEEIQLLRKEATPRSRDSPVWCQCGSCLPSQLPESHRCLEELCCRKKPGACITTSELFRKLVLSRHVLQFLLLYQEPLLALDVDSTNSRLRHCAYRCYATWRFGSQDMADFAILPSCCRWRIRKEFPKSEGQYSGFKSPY
Outline: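 Calcium mobilization read by FLIPR as peak fluorescence over 2 min after adding BzATP to a final 80 μM (about EC50). Beforehand, Fluo-4 AM-loaded SH-SY5Y cells sat 1 h at room temperature with compound at 1–2500 nM in pH 7.4 sucrose/HEPES buffer; signal minus no-agonist wells.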

IC50, ≤ 2 µM:
Cc1cnc(-n2cc(C(=O)NCC3(c4ccc(C(F)(F)F)cc4)CCCCC3)c(C(F)(F)F)n2)nc1N [Compound 172, 1-(4-amino-5-methylpyrimidin-2-yl)-3-(trifluoromethyl)-N-({1-[4-(trifluoromethyl)phenyl]cyclohexyl}methyl)-1H-pyrazole-4-carboxamide]
Cc1nn(-c2nccc(N)n2)cc1C(=O)NCC(CC(C)C)c1ccc(C(F)(F)F)cc1 (stereo not drawn) [Compound 173, 1-(4-aminopyrimidin-2-yl)-3-methyl-N-{4-methyl-2-[4-(trifluoromethyl)phenyl]pentyl}-1H-pyrazole-4-carboxamide]
Cc1nn(-c2cnccn2)cc1C(=O)NCC(CC(C)C)c1ccc(C(F)(F)F)cc1 (stereo not drawn) [Compound 174, 3-methyl-N-{4-methyl-2-[4-(trifluoromethyl)phenyl]pentyl}-1-pyrazin-2-yl-1H-pyrazole-4-carboxamide]
Cc1nn(-c2nccc(N)n2)cc1C(=O)NCC1(c2ccc(C(F)(F)F)cc2)CCCCC1 [Compound 175, 1-(4-aminopyrimidin-2-yl)-3-methyl-N-({1-[4-(trifluoromethyl)phenyl]cyclohexyl]methyl)-1H-pyrazole-4-carboxamide]
Cc1cnc(-n2cc(C(=O)NCC(CC(C)C)c3ccc(C(F)(F)F)cc3)c(C(C)(C)C)n2)nc1N (stereo not drawn) [Compound 176, 1-(4-amino-5-methylpyrimidin-2-yl)-3-tert-butyl-N-{4-methyl-2-[4-(trifluoromethyl)phenyl]pentyl}-1H-pyrazole-4-carboxamide]
Cc1cnc(-n2cc(C(=O)NCC3(c4ccc(C(F)(F)F)cc4)CCCCC3)c(C(C)(C)C)n2)nc1N [Compound 177, 1-(4-amino-5-methylpyrimidin-2-yl)-3-tert-butyl-N-({1-[4-(trifluoromethyl)phenyl]cyclohexyl]methyl)-1H-pyrazole-4-carboxamide]
Cc1nn(-c2ncccn2)cc1C(=O)NCC(CC(C)C)c1ccc(C(F)(F)F)cc1 (stereo not drawn) [Compound 178, 3-methyl-N-{4-methyl-2-[4-(trifluoromethyl)phenyl]pentyl}-1-pyrimidin-2-yl-1H-pyrazole-4-carboxamide]
Cc1nn(-c2nccnc2N)cc1C(=O)NCC(CC(C)C)c1ccc(C(F)(F)F)cc1 (stereo not drawn) [Compound 179, 1-(3-aminopyrazin-2-yl)-3-methyl-N-{4-methyl-2-[4-(trifluoromethyl)phenyl]pentyl}-1H-pyrazole-4-carboxamide]
Cc1nn(-c2cncc(N)n2)cc1C(=O)NCC(CC(C)C)c1ccc(C(F)(F)F)cc1 (stereo not drawn) [Compound 180, 1-(6-aminopyrazin-2-yl)-3-methyl-N-{4-methyl-2-[4-(trifluoromethyl)phenyl]pentyl}-1H-pyrazole-4-carboxamide]
Cc1nn(-c2ncccn2)cc1C(=O)NCC1(c2ccc(C(F)(F)F)cc2)CCCCC1 [Compound 181, 3-methyl-1-pyrimidin-2-yl-N-({1-[4-(trifluoromethyl)phenyl]cyclohexyl]methyl)-1H-pyrazole-4-carboxamide]
Cc1nn(-c2nccnc2N)cc1C(=O)NCC1(c2ccc(C(F)(F)F)cc2)CCCCC1 [Compound 182, 1-(3-aminopyrazin-2-yl)-3-methyl-N-({1-[4-(trifluoromethyl)phenyl]cyclohexyl}methyl)-1H-pyrazole-4-carboxamide]
Cc1nn(-c2cncc(N)n2)cc1C(=O)NCC1(c2ccc(C(F)(F)F)cc2)CCCCC1 [Compound 183, 1-(6-aminopyrazin-2-yl)-3-methyl-N-({1-[4-(trifluoromethyl)phenyl]cyclohexyl}methyl)-1H-pyrazole-4-carboxamide]
Cc1nn(-c2cnccn2)cc1C(=O)NCC1(c2ccc(C(F)(F)F)cc2)CCCCC1 [Compound 184, 3-methyl-1-pyrazin-2-yl-N-({1-[4-(trifluoromethyl)phenyl]cyclohexyl}methyl)-1H-pyrazole-4-carboxamide]
COc1ccnc(-n2cc(C(=O)NCC3(c4cccnc4)CCCCC3)c(C(F)(F)F)n2)n1 [Compound 185, 1-(4-methoxypyrimidin-2-yl)-N-[(1-pyridin-3-ylcyclohexyl)methyl]-3-(trifluoromethyl)-1H-pyrazole-4-carboxamide]
Cc1nccnc1-n1cc(C(=O)NCC2(c3cccnc3)CCCCC2)c(C(F)(F)F)n1 [Compound 186, 1-(3-methylpyrazin-2-yl)-N-[(1-pyridin-3-ylcyclohexyl)methyl]-3-(trifluoromethyl)-1H-pyrazole-4-carboxamide]
Cc1cncc(-n2cc(C(=O)NCC3(c4cccnc4)CCCCC3)c(C(F)(F)F)n2)n1 [Compound 187, 1-(6-methylpyrazin-2-yl)-N-[(1-pyridin-3-ylcyclohexyl)methyl]-3-(trifluoromethyl)-1H-pyrazole-4-carboxamide]
CCc1nccnc1-n1cc(C(=O)NCC2(c3cccnc3)CCCCC2)c(C(F)(F)F)n1 [Compound 188, 1-(3-ethylpyrazin-2-yl)-N-[(1-pyridin-3-ylcyclohexyl)methyl]-3-(trifluoromethyl)-1H-pyrazole-4-carboxamide]
Cc1cnc(-n2cc(C(=O)NCC3(c4ccc(F)cc4)CCCCC3)c(C(F)(F)F)n2)nc1N [Compound 190, 1-(4-amino-5-methylpyrimidin-2-yl)-N-{[1-(4-fluorophenyl)cyclohexyl]methyl}-3-(trifluoromethyl)-1H-pyrazole-4-carboxamide]
COc1cnc(-n2cc(C(=O)NCC3(c4cccnc4)CCCCC3)c(C(F)(F)F)n2)nc1 [Compound 191, 1-(5-methoxypyrimidin-2-yl)-N-[(1-pyridin-3-ylcyclohexyl)methyl]-3-(trifluoromethyl)-1H-pyrazole-4-carboxamide]
O=C(NCC1(c2cccnc2)CCCCC1)c1cn(-c2ncc(Cl)cn2)nc1C(F)(F)F [Compound 192, 1-(5-chloropyrimidin-2-yl)-N-[(1-pyridin-3-ylcyclohexyl)methyl]-3-(trifluoromethyl)-1H-pyrazole-4-carboxamide]
O=C(NCCC12CC3CC(CC(C3)C1)C2)c1cn(-c2ncccn2)nc1C(F)(F)F [Compound 193, N-(2-adamantan-1-ylethyl)-1-pyrimidin-2-yl-3-(trifluoromethyl)-1H-pyrazole-4-carboxamide]
CC1(C)C2CC[C@@H](CNC(=O)c3cn(-c4ncccn4)nc3C(F)(F)F)C1C2 (stereo partly drawn) [Compound 194, N-{[(2R)-6,6-dimethylbicyclo[3.1.1]hept-2-yl]methyl}-1-pyrimidin-2-yl-3-(trifluoromethyl)-1H-pyrazole-4-carboxamide]
O=C(NCC1(c2ccc(Cl)cc2)CCCCC1)c1cn(-c2ncccn2)nc1C(F)(F)F [Compound 195, N-{[1-(4-chlorophenyl)cyclohexyl]methyl}-1-pyrimidin-2-yl-3-(trifluoromethyl)-1H-pyrazole-4-carboxamide]
O=C(NCC1(c2ccc(C(F)(F)F)cc2)CCCCC1)c1cn(-c2ncccn2)nc1C(F)(F)F [Compound 196, 1-pyrimidin-2-yl-3-(trifluoromethyl)-N-({1-[4-(trifluoromethyl)phenyl]cyclohexyl]methyl)-1H-pyrazole-4-carboxamide]
O=C(NCC1(c2ccc(Cl)cc2)CCOCC1)c1cn(-c2ncccn2)nc1C(F)(F)F [Compound 197, N-{[4-(4-chlorophenyl)tetrahydro-2H-pyran-4-yl]methyl}-1-pyrimidin-2-yl-3-(trifluoromethyl)-1H-pyrazole-4-carboxamide]
O=C(NCC1(N2CCOCC2)CCCCC1)c1cn(-c2ncccn2)nc1C(F)(F)F [Compound 198, N-[(1-morpholin-4-ylcyclohexyl)methyl]-1-pyrimidin-2-yl-3-(trifluoromethyl)-1H-pyrazole-4-carboxamide]
COc1ccc(C2(CNC(=O)c3cn(-c4ncccn4)nc3C(F)(F)F)CCCCC2)cc1 [Compound 199, N-{[1-(4-methoxyphenyl)cyclohexyl]methyl}-1-pyrimidin-2-yl-3-(trifluoromethyl)-1H-pyrazole-4-carboxamide]
CC(C)CC(CNC(=O)c1cn(-c2ncccn2)nc1C(F)(F)F)c1ccc(C(F)(F)F)cc1 (stereo not drawn) [Compound 200, N-{4-methyl-2-[4-(trifluoromethyl)phenyl]pentyl}-1-pyrimidin-2-yl-3-(trifluoromethyl)-1H-pyrazole-4-carboxamide]
CCCC(CNC(=O)c1cn(-c2ncccn2)nc1C(F)(F)F)c1ccc(Cl)cc1 (stereo not drawn) [Compound 201, N-[2-(4-chlorophenyl)pentyl]-1-pyrimidin-2-yl-3-(trifluoromethyl)-1H-pyrazole-4-carboxamide]
CC(CNC(=O)c1cn(-c2ncccn2)nc1C(F)(F)F)c1ccc(Cl)cc1 (stereo not drawn) [Compound 202, N-[2-(4-chlorophenyl)propyl]-1-pyrimidin-2-yl-3-(trifluoromethyl)-1H-pyrazole-4-carboxamide]
